What all share (type): functional, cell-free
The nature of assay [1]: Antioxidant activity against Cu2+-induced lipid peroxidation in human plasma LDL assessed as conjugated diene formation at 20 umol/L preincubated for 1 hr before Cu2+ challenge measured after 150 mins.
Assay [2] can be described thus: Antioxidant activity against Cu2+-induced lipid peroxidation in human plasma LDL assessed as lysophosphatidylcholine formation at 20 umol/L preincubated for 1 hr before Cu2+ challenge measured after 180 mins.
Assay [3] can be described thus: Antioxidant activity against Cu2+-induced lipid peroxidation in human plasma LDL assessed as maximal compound concentration at 20 umol/L preincubated for 1 hr before Cu2+ challenge measured after 30 mins relative to compound present at 0 min.
Assay [4] is described as follows: Antioxidant activity against Cu2+-induced lipid peroxidation in human plasma LDL assessed as lysophosphatidylcholine formation at 5 umol/L preincubated for 1 hr before Cu2+ challenge measured after 360 mins.
The nature of assay [5]: Antioxidant activity against Cu2+-induced lipid peroxidation in human plasma LDL assessed as vitamin E consumption at 5 umol/L preincubated for 1 hr before Cu2+ challenge measured after 15 mins.
Assay [6] is described as follows: Antioxidant activity against Cu2+-induced lipid peroxidation in human plasma LDL assessed as vitamin E consumption at 5 umol/L preincubated for 1 hr before Cu2+ challenge measured after 120 mins.
Assay [7] in a line: Antioxidant activity against Cu2+-induced lipid peroxidation in human plasma LDL assessed as vitamin E consumption at 5 umol/L preincubated for 1 hr before Cu2+ challenge measured after 150 mins.
Assay [8] can be described thus: Antioxidant activity against Cu2+-induced lipid peroxidation in human plasma LDL assessed as maximal compound concentration at 5 umol/L preincubated for 1 hr before Cu2+ challenge measured after 210 mins relative to compound present at 0 min.
Assay [9] is described as follows: Antioxidant activity against Cu2+-induced lipid peroxidation in human plasma LDL assessed as conjugated diene formation at 10 umol/L preincubated for 1 hr before Cu2+ challenge measured after 90 mins.

In the case of `CC(C)(Sc1cc(C(C)(C)C)c(O)c(C(C)(C)C)c1)Sc1cc(C(C)(C)C)c(O)c(C(C)(C)C)c1`, the Activity in assay [1] was 1.1%; in assay [2], 1.5%; in assay [3], 91.8%; in assay [4], 29.1%; in assay [5], 45%; in assay [6] it was 0%. The Activity in [7] was found to be 0%; in [8], 36.8%; in assay [9] it was 4%.

(Values after ChEMBL document CHEMBL1137802, “Specific antioxidant activity of caffeoyl derivatives and other natural phenolic compounds: LDL protection against oxidation and decrease in the proinflammatory lysophosphatidylcholine production” (J Nat Prod, 2001).)
